Assay results from patent US8383619B2, “Pharmaceutical compounds” (Astex Therapeutics Limited, priority 2008, dated 2013).

Columns and labels:
Test in all cases: Anti-proliferative assay (Oncodesign)
Assay type in all cases: cell-based
Hep 3B2.1-7 = Hep 3B2.1-7 (LIVER); read-out: IC50 (Concentration of test compound)
Experimental: (§1) The anti-proliferative activities of the parent compounds of the pro-drugs of the invention may be determined by measuring the ability of the compounds to inhibition of cell growth in a number of cell lines such as the human colon cancer cell line HCT116. Inhibition of cell growth is measured using the Alamar Blue assay (Nociari, M. M, Shalev, A., Benias, P., Russo, C. Journal of Immunological Methods 1998, 213, 157-167). The method is based on the ability of viable cells to reduce resazurin to its fluorescent product resorufin. For each proliferation assay cells are plated onto 96 well plates and allowed to recover for 16 hours prior to the addition of inhibitor compounds for a further 72 hours. At the end of the incubation period 10% (v/v) Alamar Blue is added and incubated for a further 6 hours prior to determination of fluorescent product at […]. In the case of the non-proliferating cell assay cells are maintained at confluence for 96 hour prior to the addition of inhibitor compounds for a further 72 hours. The number of viable cells is determined by Alamar Blue assay as before. Cell lines may be obtained from the ECACC (European Collection of cell Cultures).
(§2) The parent compound of the pro-drugs of Examples 1 to 25 i.e. (2,4-dihydroxy-5-isopropyl-phenyl)-[5-(4-methyl-piperazin-1-ylmethyl)-1,3-dihydro-isoindol-2-yl]-methanone, in the form of its L-lactate salt, was tested in anti-proliferative assays against one hundred cell lines by Oncodesign (Dijon, France). The IC50 values against each cell line are set out in the table below and the figures in the table refer to nanomolar concentrations. The compounds were tested up to a concentration of 10,000 nanomolar.

NIH: OVCAR-3 = settings: Homo sapiens; NIH: OVCAR-3 (OVARY); read-out: IC50 (Concentration of test compound)
Experimental: as §1, §2

ARH-77 = settings: Homo sapiens; ARH-77 (BLOOD); read-out: IC50 (Concentration of test compound)
Experimental: as §1, §2

CCRF-CEM/VLB = settings: Homo sapiens; CCRF-CEM/VLB (BLOOD); read-out: IC50 (Concentration of test compound)
Experimental: as §1, §2

K-562/Gleevec = settings: Homo sapiens, K562; K-562/Gleevec (BLOOD); read-out: IC50 (Concentration of test compound)
Experimental: as §1, §2

A-375-SM = settings: Homo sapiens, A375-SM; A-375-SM (SKIN); read-out: IC50 (Concentration of test compound)
Experimental: as §1, §2

KB3 = KB3 (HEAD AND NECK); read-out: IC50 (Concentration of test compound)
Experimental: as §1, §2

K-562 = settings: Homo sapiens, K562; K-562 (BLOOD); read-out: IC50 (Concentration of test compound)
Experimental: as §1, §2

NAMALWA = NAMALWA (BLOOD); read-out: IC50 (Concentration of test compound)
Experimental: as §1, §2

Calu-3 = settings: Homo sapiens; Calu-3 (LUNG); read-out: IC50 (Concentration of test compound)
Experimental: as §1, §2

RPMI 8226 = settings: Homo sapiens; RPMI 8226 (BLOOD); read-out: IC50 (Concentration of test compound)
Experimental: as §1, §2

LB796-BLC = LB796-BLC (URINARY BLADDER); read-out: IC50 (Concentration of test compound)
Experimental: as §1, §2

AGS = settings: Homo sapiens; AGS (STOMACH); read-out: IC50 (Concentration of test compound)
Experimental: as §1, §2

BB30-HNSCC = BB30-HNSCC (HEAD AND NECK); read-out: IC50 (Concentration of test compound)
Experimental: as §1, §2

LB1617-HNSCC = LB1617-HNSCC (HEAD AND NECK); read-out: IC50 (Concentration of test compound)
Experimental: as §1, §2

SW-872 = settings: Homo sapiens, SW872; SW-872 (CONNECTIVE TISSUE); read-out: IC50 (Concentration of test compound)
Experimental: as §1, §2

BB65-RCC = BB65-RCC (KIDNEY); read-out: IC50 (Concentration of test compound)
Experimental: as §1, §2

NCI-H69 = settings: Homo sapiens; NCI-H69 (LUNG); read-out: IC50 (Concentration of test compound)
Experimental: as §1, §2

Calu-1 = settings: Homo sapiens; Calu-1 (LUNG); read-out: IC50 (Concentration of test compound)
Experimental: as §1, §2

UZG4-MEL = UZG4-MEL (SKIN); read-out: IC50 (Concentration of test compound)
Experimental: as §1, §2

LAMA-84 = settings: Homo sapiens; LAMA-84 (BLOOD); read-out: IC50 (Concentration of test compound)
Experimental: as §1, §2

Ramos = settings: Homo sapiens; Ramos (BLOOD); read-out: IC50 (Concentration of test compound)
Experimental: as §1, §2

LB13-SCLC/OC3 = LB13-SCLC/OC3 (LUNG); read-out: IC50 (Concentration of test compound)
Experimental: as §1, §2

Daudi = settings: Homo sapiens; Daudi (BLOOD); read-out: IC50 (Concentration of test compound)
Experimental: as §1, §2

CGL-9 = CGL-9 (BRAIN); read-out: IC50 (Concentration of test compound)
Experimental: as §1, §2

- IC50 (NIH: OVCAR-3): 45 nM
- IC50 (CCRF-CEM/VLB): > 10000 nM
- IC50 (K-562/Gleevec): 175 nM
- IC50 (A-375-SM): 340 nM
- IC50 (K-562): 147 nM
- IC50 (Calu-3): > 10000 nM
- IC50 (AGS): 66 nM
- IC50 (SW-872): > 10000 nM
- IC50 (NCI-H69): 162 nM
- IC50 (Calu-1): 270 nM
- IC50 (Ramos): 46 nM
- IC50 (Daudi): 136 nM
Compound: CC(C)c1cc(C(=O)N2Cc3ccc(CN4CCN(C)CC4)cc3C2)c(O)cc1O [(2,4-dihydroxy-5-isopropyl-phenyl)-[5-(4-methyl-piperazin-1-ylmethyl)-1,3-dihydro-isoindol-2-yl]-methanone]
- IC50 (Hep 3B2.1-7): 95 nM
- IC50 (ARH-77): > 10000 nM
- IC50 (KB3): 48 nM
- IC50 (NAMALWA): 93 nM
- IC50 (RPMI 8226): 10 nM
- IC50 (LB796-BLC): 83 nM
- IC50 (BB30-HNSCC): 273 nM
- IC50 (LB1617-HNSCC): 139 nM
- IC50 (BB65-RCC): 1250 nM
- IC50 (UZG4-MEL): 180 nM
- IC50 (LAMA-84): 1100 nM
- IC50 (LB13-SCLC/OC3): 21 nM
- IC50 (CGL-9): 161 nM
